Reference: patent US4582639A, “Antitumor antibiotic compound” (priority 1984, dated 1986)
Converted amounts (≈) assume the structure as drawn. Bridge positions count the residues as written; N and C are the ends. Square brackets hold non-standard residues; d marks the D form. Peptide text beside a SMILES is read from it. I, II: the chains in the order shown. * marks the point of attachment. Quinaldoyl(3-OH) = O=C(c1nc2ccccc2cc1O)*; NMeV = CN[CH](C(=O)O)C(C)C; Pip = O=C(O)[CH]1CCCCN1; Sar = CNCC(=O)O

Experiments:
[1] = tested on: S. aureus (echinomycin resistant) A9628; experiment: microbe, parasite or virus in culture; assay type: cell-based; conditions: Staphylococcus aureus, read-out: Minimum Inhibitory Concentration (MIC)
Description: The antibacterial activities of sandramycin were determined by a serial two-fold agar dilution method.

[2] = tested on: B. subtilis (Rec. +) A22508-2; experiment: serial two-fold agar dilution, MIC; assay type: cell-based; conditions: Bacillus subtilis; B. subtilis (Rec. +) A22508-2, agar dilution; read-out: Minimum Inhibitory Concentration (MIC)
Description: (§1) The antibacterial activities of sandramycin were determined by a serial two-fold agar dilution method. The results are shown in Table 5 in comparison with the activities of luzopeptin A and echinomycin.

E. coli A15119 = experiment: serial two-fold agar dilution, MIC; assay type: cell-based; conditions: Escherichia coli, read-out: Minimum Inhibitory Concentration (MIC)
Description: as §1

[3] = tested on: E. coli (actinomycin sensitive) A21780 (AS-19); experiment: serial two-fold agar dilution, MIC; assay type: cell-based; conditions: Escherichia coli, read-out: Minimum Inhibitory Concentration (MIC)
Description: as §1

[4] = tested on: B. subtilis (Rec. -) A22509-2-2; experiment: serial two-fold agar dilution, MIC; assay type: cell-based; conditions: Bacillus subtilis; B. subtilis (Rec. -) A22509-2-2, agar dilution; read-out: Minimum Inhibitory Concentration (MIC)
Description: as §1

Strep. faecalis A9611 = experiment: serial two-fold agar dilution, MIC; assay type: cell-based, Streptococcus faecalis; conditions: Enterococcus faecalis, read-out: Minimum Inhibitory Concentration (MIC)
Description: as §1

P-388 leukemia = experiment: transplantable mouse tumor P-388 leukemia; assay type: in vivo, mouse (CDF1 female mice)
Description: The methodology used generally followed the protocols of the National Cancer Institute [Cancer Chemotherapy Rep. Part 3, 3, 1-103 (1972)]. The essential experimental details are given at the bottom of Table 6. Two different dose regimens were tested: single dose on day 1 and daily for 5 days. With both schedules, the optimum dose appears to be about 0.2 mg/kg/injection.
Tumor inoculum: 10^6 ascites cells implanted i.p.
Evaluation: MST=median survival time
Effect: % T/C≥(MST treated/MST control)×100
Criteria: % T/C=125 considered significant antitumor activity
AWC: average weight change (treated-control) in grams (on day 4)

[5] = tested on: gram-positive organisms such as Bacillus subtilis and Staphylococcus aureus as well as Streptococcus faecalis; experiment: serial two-fold agar dilution, antibacterial activity in words; assay type: cell-based
Description: as §1

CS[C@H]1SC[C@H]2C(=O)N(C)[C@@H](C(C)C)C(=O)OC[C@@H](NC(=O)c3cnc4ccccc4n3)C(=O)N[C@@H](C)C(=O)N(C)[C@@H]1C(=O)N(C)[C@@H](C(C)C)C(=O)OC[C@@H](NC(=O)c1cnc3ccccc3n1)C(=O)N[C@@H](C)C(=O)N2C [Echinomycin]
MIC [1]: 0.78 µg/mL (≈ 0.708 µM) | MIC [2]: 0.049 µg/mL (≈ 0.0445 µM) | MIC (E. coli A15119): 12.5 µg/mL (≈ 11.4 µM) | MIC [3]: 6.25 µg/mL (≈ 5.68 µM) | MIC [4]: < 0.003 µg/mL | MIC (Strep. faecalis A9611): 0.012 µg/mL (≈ 0.0109 µM)

COc1ccc2nc(C(=O)N[C@@H]3COC(=O)[C@H](C(C)(C)O)N(C)C(=O)CN(C)C(=O)CNC(=O)C4C(OC(C)=O)CC=NN4C(=O)[C@H](NC(=O)c4nc5ccc(OC)cc5cc4O)COC(=O)[C@H](C(C)(C)O)N(C)C(=O)CN(C)C(=O)CNC(=O)C4C(OC(C)=O)CC=NN4C3=O)c(O)cc2c1 (some centres unmarked) [Luzopeptin A]
MIC [1]: 0.098 µg/mL (≈ 0.0687 µM) | MIC [2]: 0.195 µg/mL (≈ 0.137 µM) | MIC (E. coli A15119): 12.5 µg/mL (≈ 8.76 µM) | MIC [3]: 12.5 µg/mL (≈ 8.76 µM) | MIC [4]: 0.049 µg/mL (≈ 0.0343 µM) | MIC (Strep. faecalis A9611): 0.195 µg/mL (≈ 0.137 µM)

CC(C)C1C(=O)OCC(NC(=O)c2nc3ccccc3cc2O)C(=O)N2CCCCC2C(=O)NCC(=O)N(C)CC(=O)N(C)C(C(C)C)C(=O)OCC(NC(=O)c2nc3ccccc3cc2O)C(=O)N2CCCCC2C(=O)NCC(=O)N(C)CC(=O)N1C (centres unmarked) [Sandramycin] (I: {Quinaldoyl(3-OH)}-S[Pip]G[Sar][NMeV] / II: {Quinaldoyl(3-OH)}-S[Pip]G[Sar][NMeV]; ester I:1-II:C, I:C-II:1; configuration not given here)
MIC [1]: 0.098 µg/mL (≈ 0.0802 µM) | optimum dose (P-388 leukemia; IP, both schedules (single dose on day 1 and daily for 5 days)): about 0.2 mg/kg/injection | AWC Day 4 (P-388 leukemia; d. 1, IP, 0.025 mg/kg/inj.): -0.2 gm | MST (P-388 leukemia; d. 1, IP, 0.025 mg/kg/inj.): 9.5 days | MST % T/C (P-388 leukemia; d. 1, IP, 0.025 mg/kg/inj.): 106% | Survivors Day 5 (P-388 leukemia; d. 1, IP, 0.025 mg/kg/inj.): 6/6 | AWC Day 4 (P-388 leukemia; d. 1, IP, 0.05 mg/kg/inj.): -0.6 gm | MST (P-388 leukemia; d. 1, IP, 0.05 mg/kg/inj.): 10.0 days | MST % T/C (P-388 leukemia; d. 1, IP, 0.05 mg/kg/inj.): 111% | Survivors Day 5 (P-388 leukemia; d. 1, IP, 0.05 mg/kg/inj.): 6/6 | AWC Day 4 (P-388 leukemia; d. 1, IP, 0.1 mg/kg/inj.): -0.9 gm | MST (P-388 leukemia; d. 1, IP, 0.1 mg/kg/inj.): 11.0 days | MST % T/C (P-388 leukemia; d. 1, IP, 0.1 mg/kg/inj.): 122% | Survivors Day 5 (P-388 leukemia; d. 1, IP, 0.1 mg/kg/inj.): 6/6 | AWC Day 4 (P-388 leukemia; d. 1, IP, 0.2 mg/kg/inj.): -1.4 gm | MST (P-388 leukemia; d. 1, IP, 0.2 mg/kg/inj.): 14.5 days | MST % T/C (P-388 leukemia; d. 1, IP, 0.2 mg/kg/inj.): 161% | Survivors Day 5 (P-388 leukemia; d. 1, IP, 0.2 mg/kg/inj.): 6/6 | AWC Day 4 (P-388 leukemia; d. 1, IP, 0.4 mg/kg/inj.): -0.7 gm | MST (P-388 leukemia; d. 1, IP, 0.4 mg/kg/inj.): 11.0 days | MST % T/C (P-388 leukemia; d. 1, IP, 0.4 mg/kg/inj.): 122% | Survivors Day 5 (P-388 leukemia; d. 1, IP, 0.4 mg/kg/inj.): 6/6 | AWC Day 4 (P-388 leukemia; d. 1, IP, 0.8 mg/kg/inj.): -1.6 gm | MST (P-388 leukemia; d. 1, IP, 0.8 mg/kg/inj.): 10.0 days | MST % T/C (P-388 leukemia; d. 1, IP, 0.8 mg/kg/inj.): 111% | Survivors Day 5 (P-388 leukemia; d. 1, IP, 0.8 mg/kg/inj.): 6/6 | AWC Day 4 (P-388 leukemia; d. 1, IP, 1.6 mg/kg/inj.): -1.3 gm | MST (P-388 leukemia; d. 1, IP, 1.6 mg/kg/inj.): 11.5 days | MST % T/C (P-388 leukemia; d. 1, IP, 1.6 mg/kg/inj.): 128% | Survivors Day 5 (P-388 leukemia; d. 1, IP, 1.6 mg/kg/inj.): 6/6 | AWC Day 4 (P-388 leukemia; d. 1, IP, 3.2 mg/kg/inj.): -2.8 gm | MST (P-388 leukemia; d. 1, IP, 3.2 mg/kg/inj.): Toxic | MST % T/C (P-388 leukemia; d. 1, IP, 3.2 mg/kg/inj.): Toxic | Survivors Day 5 (P-388 leukemia; d. 1, IP, 3.2 mg/kg/inj.): 0/6 | AWC Day 4 (P-388 leukemia; d. 1→5, IP, 0.0125 mg/kg/inj.): -0.9 gm | MST (P-388 leukemia; d. 1→5, IP, 0.0125 mg/kg/inj.): 10.5 days | MST % T/C (P-388 leukemia; d. 1→5, IP, 0.0125 mg/kg/inj.): 117% | AWC Day 4 (P-388 leukemia; d. 1→5, IP, 0.025 mg/kg/inj.): -1.4 gm | MST (P-388 leukemia; d. 1→5, IP, 0.025 mg/kg/inj.): 10.0 days | MST % T/C (P-388 leukemia; d. 1→5, IP, 0.025 mg/kg/inj.): 111% | Survivors Day 5 (P-388 leukemia; d. 1→5, IP, 0.025 mg/kg/inj.): 5/5 | AWC Day 4 (P-388 leukemia; d. 1→5, IP, 0.05 mg/kg/inj.): -1.8 gm | MST (P-388 leukemia; d. 1→5, IP, 0.05 mg/kg/inj.): 8.5 days | MST % T/C (P-388 leukemia; d. 1→5, IP, 0.05 mg/kg/inj.): 94% | Survivors Day 5 (P-388 leukemia; d. 1→5, IP, 0.05 mg/kg/inj.): 6/6 | AWC Day 4 (P-388 leukemia; d. 1→5, IP, 0.1 mg/kg/inj.): -0.8 gm | MST (P-388 leukemia; d. 1→5, IP, 0.1 mg/kg/inj.): 11.5 days | MST % T/C (P-388 leukemia; d. 1→5, IP, 0.1 mg/kg/inj.): 128% | Survivors Day 5 (P-388 leukemia; d. 1→5, IP, 0.1 mg/kg/inj.): 6/6 | AWC Day 4 (P-388 leukemia; d. 1→5, IP, 0.2 mg/kg/inj.): -1.7 gm | MST (P-388 leukemia; d. 1→5, IP, 0.2 mg/kg/inj.): 12.0 days | MST % T/C (P-388 leukemia; d. 1→5, IP, 0.2 mg/kg/inj.): 133% | Survivors Day 5 (P-388 leukemia; d. 1→5, IP, 0.2 mg/kg/inj.): 5/6 | AWC Day 4 (P-388 leukemia; d. 1→5, IP, 0.4 mg/kg/inj.): -1.3 gm | MST (P-388 leukemia; d. 1→5, IP, 0.4 mg/kg/inj.): 11.0 days | MST % T/C (P-388 leukemia; d. 1→5, IP, 0.4 mg/kg/inj.): 122% | Survivors Day 5 (P-388 leukemia; d. 1→5, IP, 0.4 mg/kg/inj.): 6/6 | AWC Day 4 (P-388 leukemia; d. 1→5, IP, 0.8 mg/kg/inj.): -1.4 gm | MST (P-388 leukemia; d. 1→5, IP, 0.8 mg/kg/inj.): 6.0 days | MST % T/C (P-388 leukemia; d. 1→5, IP, 0.8 mg/kg/inj.): 67% | Survivors Day 5 (P-388 leukemia; d. 1→5, IP, 0.8 mg/kg/inj.): 5/6 | AWC Day 4 (P-388 leukemia; d. 1→5, IP, 1.6 mg/kg/inj.): -1.7 gm | MST (P-388 leukemia; d. 1→5, IP, 1.6 mg/kg/inj.): Toxic | MST % T/C (P-388 leukemia; d. 1→5, IP, 1.6 mg/kg/inj.): Toxic | Survivors Day 5 (P-388 leukemia; d. 1→5, IP, 1.6 mg/kg/inj.): 2/6 | antibacterial activity [5]: strongly inhibitory | MIC [2]: 0.024 µg/mL (≈ 0.0197 µM) | MIC (E. coli A15119): 12.5 µg/mL (≈ 10.2 µM) | MIC [3]: 12.5 µg/mL (≈ 10.2 µM) | MIC [4]: 0.012 µg/mL (≈ 0.00983 µM) | MIC (Strep. faecalis A9611): 0.024 µg/mL (≈ 0.0197 µM)
